Counter-ions that a name gives are not always drawn. Where only a bound is given, the exact number is not on record here.

The source of these data is patent publication US5135931A, “Pyridinylpiperazine derivatives” (Akzo N.V., priority 1990, dated 1992).

Experiment [1] addresses T1, 5-HT1A (serotonin 1A) receptors (Homo sapiens, UniProt P08908).
T1 sequence (P08908 1-422): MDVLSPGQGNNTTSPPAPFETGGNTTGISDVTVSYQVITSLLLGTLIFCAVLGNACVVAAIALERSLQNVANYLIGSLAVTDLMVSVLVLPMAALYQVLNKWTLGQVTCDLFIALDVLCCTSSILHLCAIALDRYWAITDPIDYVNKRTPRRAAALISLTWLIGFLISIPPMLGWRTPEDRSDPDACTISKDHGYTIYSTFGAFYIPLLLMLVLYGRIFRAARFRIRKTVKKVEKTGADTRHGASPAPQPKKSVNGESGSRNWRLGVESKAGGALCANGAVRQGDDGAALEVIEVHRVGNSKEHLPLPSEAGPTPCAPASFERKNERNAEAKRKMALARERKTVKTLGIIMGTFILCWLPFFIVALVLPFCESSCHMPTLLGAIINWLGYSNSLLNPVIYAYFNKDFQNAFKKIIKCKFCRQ
The experiment can be described thus: serotonin binding activity, 5-HT1A. As to conditions: average test results; read-out: pKi 5-HT1A (converted). As for the experimental part:
(§1) The various compounds of Examples I-VIII were analyzed for serotonin binding activity.

For experiment [2], the target named is 5-HT1B (serotonin 1B) receptor (Rattus norvegicus, UniProt P28564). The experiment can be described thus: serotonin binding activity, 5-HT1B. As to conditions: average test results; read-out: pKi 5-HT1B (converted). As for the experimental part: as §1
5-HT1B (serotonin 1B) receptor, sequence (P28564 whole entry): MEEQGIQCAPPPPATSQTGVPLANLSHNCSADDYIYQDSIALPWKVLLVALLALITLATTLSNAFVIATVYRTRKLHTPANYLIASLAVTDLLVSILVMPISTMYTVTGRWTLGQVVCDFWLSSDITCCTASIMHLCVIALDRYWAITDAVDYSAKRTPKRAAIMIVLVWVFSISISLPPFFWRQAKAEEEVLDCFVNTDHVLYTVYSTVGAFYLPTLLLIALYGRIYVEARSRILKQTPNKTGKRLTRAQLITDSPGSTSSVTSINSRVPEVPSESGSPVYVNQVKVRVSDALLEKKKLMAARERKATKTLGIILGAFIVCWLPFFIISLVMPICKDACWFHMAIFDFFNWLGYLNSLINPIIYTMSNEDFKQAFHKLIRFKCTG

For the molecule `O=C(NCCN1CCN(c2cccc(C(F)(F)F)n2)CC1)c1ccc(F)cc1` [Example I, 4-fluoro-N-[2-[4-[6-(trifluoromethyl)-2-pyridinyl]-1-piperazinyl]ethyl]benzamide (E)-2-butenedioate (1:1) salt], the Ki was 1.58 nM in experiment [1] and more than 10000 nM in experiment [2].

As for `O=C(NCCCCN1CCN(c2cccc(C(F)(F)F)n2)CC1)c1ccc(F)cc1` [Example IV, 4-fluoro-N-[4-[4-[6-(trifluoromethyl) -2-pyridinyl]-1-piperazinyl]butyl]benzamide (E)-2-butenedioate (2:1) salt], the Ki is 7.94 nM in experiment [1] and 501 nM in experiment [2].

`O=C(NCCN1CCN(c2cccc(C(F)(F)F)n2)CC1)c1ccccc1` [II, N-[2-[4-[6-(trifluoromethyl)-2-pyridinyl]-1-piperazinyl]ethyl]benzamide (E)-2-butenedioate (1:1) salt]: the figures for the Ki in experiment [1] and in experiment [2] were 1 nM and 10000 nM, respectively.

Regarding `O=C(NCCN1CCN(c2cc(C(F)(F)F)ccn2)CC1)c1ccc(F)cc1` [III, 4-fluoro-N-[2-[4-[4-(trifluoromethyl) -2-pyridinyl]-1-piperazinyl]ethyl]benzamide (E)-2-butenedioate (1:1) salt], the Ki in experiment [1] is 20 nM; in experiment [2] it was 10000 nM.

In the case of `O=C(NCCCCN1CCN(c2cccc(C(F)(F)F)n2)CC1)c1ccccc1` [V, N-[4-[4-[6-(trifluoromethyl)-2-pyridinyl]-1-piperazinyl]butyl]benzamide (E)-2-butenedioate (2:1) salt], the Ki in experiment [1] is 6.31 nM; in experiment [2] it was 1000 nM.

For `CN(CCN1CCN(c2cccc(C(F)(F)F)n2)CC1)C(=O)c1ccc(F)cc1` [VII, 4-fluoro-N-[2-[4-(6-(trifluoromethyl)-2-pyridinyl)-1-piperazinyl]ethyl]-N-methylbenzamide], the values for the Ki in experiment [1] and in experiment [2] were 31.6 nM and more than 10000 nM, respectively.

`CN(CCCN1CCN(c2cccc(C(F)(F)F)n2)CC1)C(=O)c1ccc(F)cc1` [VIII, 4-fluoro-N-[3-[4-(6-(trifluoromethyl)-2-pyridinyl)-1-piperazinyl]propyl]-N-methylbenzamide]: the Ki is 63.1 nM in experiment [1] and more than 10000 nM in experiment [2].

For `O=C(NCCN1CCN(c2cccc(C(F)(F)F)n2)CC1)c1cccnc1` [VI], the Ki in experiment [1] was 50.1 nM; in experiment [2] it was 5010 nM.
